Test system: Clostridium perfringens
Format: in vivo, broiler chickens (Cobb X Cobb)
Details: CP challenged

## CC[C@@H](C(=O)[C@@H](C)[C@@H](O)[C@H](C)[C@@H]1O[C@@H]([C@@H](CC)C(=O)O)CC[C@@H]1C)[C@H]1O[C@]2(C=C[C@@H](O)[C@]3(CC[C@@](C)([C@H]4CC[C@](O)(CC)[C@H](C)O4)O3)O2)[C@H](C)C[C@@H]1C [S, salinomycin]
Day 22, 0 to 3 score
  Necrotic Enteritis Lesion Score: 0.10
Days 0 to 21
  Average Weight Gain (kg) Days 0 to 21: .592 kg
  Feed Conversion Ratio (feed to gain ratio) Days 0 to 21: 1.550
Days 0 to 42
  Feed Conversion Ratio (feed to gain ratio) Days 0 to 42: 1.914
  Mortality (%) All Causes Days 0 to 42: 4.67%
  Mortality (%) Necrotic Enteritis Days 0 to 42: 1.33%
Days 21 to 42
  Feed Conversion Ratio (feed to gain ratio) Days 21 to 42: 2.126

Source: US20130337014A1 (priority 2008, published 2013)
